Earlier results in publication PMC10795913 (The Journal of Clinical Endocrinology and Metabolism, 2023).

System: patients
Settings: different assays, not directly comparable; cited from earlier work

## lixisenatide
  ADA incidence in published studies: up to 71.2%
